Laboratory results as given in patent US9499811B2, “Ligation enhancement” (New England Biolabs, Inc., priority 2011, dated 2016).
Values joined by “and” are separate entries in the source; they are usually repeats but may differ in a detail not shown here. Identical values can stand only once. “Also recorded” adds a separate entry of the source.

Tests used:
[1] = tested on: chemically competent DH5 alpha E. coli cells; assay: Mock ligation with supercoiled pUC19 DNA and transformation (control); type: cell-based; conditions: 12% 1,2-PrD; for Transformants from 2 pg SC DNA: supercoiled pUC19
Method: For chemically competent cell transformations, the cell-DNA mixture was incubated on ice for 30 min, heat-shocked at 42° C. for 30 sec, then returned to ice for 5 min. A volume of 950 μl SOC medium (2% vegetable peptone or Tryptone, 0.5% yeast extract, 10 mM NaCl, 2.5 mM KCl, 10 mM MgCl2, 10 mM MgSO4 and 20 mM glucose) was added to the cell-DNA mixture, followed by a one hr 37° C. outgrowth period with agitation. A volume of 25-50 μl of appropriately diluted cells in SOC was spread onto Rich Agar plates (composition per liter: 10 g soy peptone, 5 g yeast extract, 10 g NaCl, 1 g MgCl2-6H2O, 1 g dextrose, 15 grams agar) supplemented with 100 μg/ml ampicillin. Plates were inverted and incubated for 16 hrs at 37° C., followed by quantification of total colony numbers.
Mock DNA ligations were set up with 1 ng of supercoiled pUC19 DNA in 1× regular DNA ligase buffer in the presence and absence of 2000 units T4 DNA ligase and with or without 12% 1,2-PrD. Ligation reactions were conducted using the standard protocol in Example 1 and transformations with chemically competent DH5 alpha E. coli cells. 40 μl of a 1:20 dilution of the 1 ml SOC outgrowth containing 2 pg supercoiled DNA was plated onto agarose plates and incubated overnight.
This illustrates the enhancement is at the ligation step and not the transformation step.

T4 DNA ligase = target: T1, T4 DNA ligase (Enterobacteria phage T4, UniProt P00970); assay: Ligase activity titer assay with blunt-ended PhiX174-HaeIII fragments, agarose gel; type: biochemical; set-up: purchased NEB (New England Biolabs), Ipswich, Mass. #M0202; conditions: 6% 1,2-PrD, two-fold ligase dilution series, 30 min 25 C
T1 sequence (P00970 1-487): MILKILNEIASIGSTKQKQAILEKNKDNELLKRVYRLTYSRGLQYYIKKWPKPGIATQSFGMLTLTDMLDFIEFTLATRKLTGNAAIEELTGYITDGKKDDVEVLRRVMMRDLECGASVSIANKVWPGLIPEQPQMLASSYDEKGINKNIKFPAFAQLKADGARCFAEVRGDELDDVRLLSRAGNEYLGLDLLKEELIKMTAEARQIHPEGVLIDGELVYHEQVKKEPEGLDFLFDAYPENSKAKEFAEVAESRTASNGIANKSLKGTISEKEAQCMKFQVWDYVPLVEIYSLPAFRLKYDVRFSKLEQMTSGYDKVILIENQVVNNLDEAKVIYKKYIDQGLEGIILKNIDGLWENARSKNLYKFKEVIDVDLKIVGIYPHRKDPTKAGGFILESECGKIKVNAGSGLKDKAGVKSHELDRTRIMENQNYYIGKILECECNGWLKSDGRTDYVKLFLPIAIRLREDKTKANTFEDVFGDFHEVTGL
Method: The ligase activity in the absence and presence of 6% 1,2-PrD was determined in a two-fold ligase dilution series. The symbol “*” denotes equivalent levels of ligation, showing that ligation efficiency was enhanced 4-fold. The first and last lanes contain DNA markers.
The effectiveness of the ligation enhancer was also established for blunt-ended DNA as follows: 20 μl reactions were set up containing two-fold serial dilutions of 2000 units of T4 DNA ligase, 200 ng PhiX174-HaeIII digest (NEB, Ipswich, Mass., #N3026), and regular ligase buffer with 200 ng phiX174-HaeIII blunt-ended fragments per 20 μl, in the absence and presence of 6% 1,2-PrD. The reactions were incubated for 30 min at room temperature (25° C.) followed by electrophoresis on a 1% agarose gel. 1,2-PrD enhanced T4 DNA ligase activity 4-fold in this titer reaction.

With `CC(O)CO` (stereo not shown) [1,2-PrD, 1,2-propanediol] the “Transformants from 2 pg SC DNA” value ([1]; 2000 U T4 DNA ligase, duplicate reactions) was 82 and 73, the “Transformants from 2 pg SC DNA” value ([1]; T4 DNA ligase none) was 126 and the “Effect on transformation with supercoiled pUC19 DNA” value ([1]; with or without T4 DNA ligase) was “not statistically altered; also recorded: does not affect nor interfere with transformation”. For the same compound, the “Enhancement of T4 DNA ligase activity (ligation efficiency) in titer reaction” value (T4 DNA ligase) was 4 fold.
